What follows are compounds tested against IGF-1R (Homo sapiens, UniProt P08069) (assay: Western blot analysis of receptor phosphorylation following stimulation with IGF-1 in MCF-7 human breast cancer cells). Details: starved MCF7 cells, 10 nM IGF1, increasing concentrations of compound, FIG. 1.
Format: cell-based
Design: endogenous in cells; host or cells: MCF-7 (ATCC# HTB-22)
Procedure: [formula] where νb is the baseline velocity, v is the observed reaction velocity, vo is the velocity in the absence of inhibitors, and [I] is the inhibitor concentration. Cell-Based Assays for Inhibitors of IGF-1R Kinase Activity Western Blot Analysis of Receptor Phosphorylation Following Stimulation with IGF-1 in MCF-7 Human Breast Cancer Cells
MCF-7 cells (ATCC# HTB-22) were seeded in 12-well tissue culture plates at 2×10^5 cells/well in E-MEM medium (MEM+Earle's BSS+2 mM glutamine+0.1 mM non-essential amino acids)+10% FCS, and incubated overnight at 37° C., 5% CO2, 100% relative humidity. Cells were then starved by replacing E-MEM+10% FCS with E-MEM+0.1% BSA, and incubating overnight. After this incubation, wells were treated with desired concentrations of compound for 1 hour at 37° C., and were then stimulated with 10 nM recombinant human IGF-1 (Invitrogen, Carlsbad, Calif., USA) for 10 minutes at 37° C. Cells were then washed with PBS and lysed in 100 microL/well cell lysis buffer (M-PER Mammalian Protein Extraction Reagent [Product #78501, Pierce, Rockford, Ill., USA]+10 mM EDTA+Protease inhibitor cocktail [Sigma-Aldrich product #P8340]+phosphatase inhibitor cocktail [Sigma-Aldrich products #P2850+#P5726]). Cell lysates were cleared by centrifugation at 10,000×g for 5 minutes, and 10 microg/lane of cleared lysate protein were run on NuPAGE gels (NuPAGE 4-12% 10-lane Bis-Tris gels, Invitrogen) with MOPS running buffer, then transferred onto Hybond-ECL nitrocellulose filters (Amersham Biosciences, Little Chalfont, Buckinghamshire, UK) using Mini PROTEAN II chambers (Bio-Rad Laboratories, Hercules, Calif., USA). […]

Chain of IGF-1R (P08069 31-1367): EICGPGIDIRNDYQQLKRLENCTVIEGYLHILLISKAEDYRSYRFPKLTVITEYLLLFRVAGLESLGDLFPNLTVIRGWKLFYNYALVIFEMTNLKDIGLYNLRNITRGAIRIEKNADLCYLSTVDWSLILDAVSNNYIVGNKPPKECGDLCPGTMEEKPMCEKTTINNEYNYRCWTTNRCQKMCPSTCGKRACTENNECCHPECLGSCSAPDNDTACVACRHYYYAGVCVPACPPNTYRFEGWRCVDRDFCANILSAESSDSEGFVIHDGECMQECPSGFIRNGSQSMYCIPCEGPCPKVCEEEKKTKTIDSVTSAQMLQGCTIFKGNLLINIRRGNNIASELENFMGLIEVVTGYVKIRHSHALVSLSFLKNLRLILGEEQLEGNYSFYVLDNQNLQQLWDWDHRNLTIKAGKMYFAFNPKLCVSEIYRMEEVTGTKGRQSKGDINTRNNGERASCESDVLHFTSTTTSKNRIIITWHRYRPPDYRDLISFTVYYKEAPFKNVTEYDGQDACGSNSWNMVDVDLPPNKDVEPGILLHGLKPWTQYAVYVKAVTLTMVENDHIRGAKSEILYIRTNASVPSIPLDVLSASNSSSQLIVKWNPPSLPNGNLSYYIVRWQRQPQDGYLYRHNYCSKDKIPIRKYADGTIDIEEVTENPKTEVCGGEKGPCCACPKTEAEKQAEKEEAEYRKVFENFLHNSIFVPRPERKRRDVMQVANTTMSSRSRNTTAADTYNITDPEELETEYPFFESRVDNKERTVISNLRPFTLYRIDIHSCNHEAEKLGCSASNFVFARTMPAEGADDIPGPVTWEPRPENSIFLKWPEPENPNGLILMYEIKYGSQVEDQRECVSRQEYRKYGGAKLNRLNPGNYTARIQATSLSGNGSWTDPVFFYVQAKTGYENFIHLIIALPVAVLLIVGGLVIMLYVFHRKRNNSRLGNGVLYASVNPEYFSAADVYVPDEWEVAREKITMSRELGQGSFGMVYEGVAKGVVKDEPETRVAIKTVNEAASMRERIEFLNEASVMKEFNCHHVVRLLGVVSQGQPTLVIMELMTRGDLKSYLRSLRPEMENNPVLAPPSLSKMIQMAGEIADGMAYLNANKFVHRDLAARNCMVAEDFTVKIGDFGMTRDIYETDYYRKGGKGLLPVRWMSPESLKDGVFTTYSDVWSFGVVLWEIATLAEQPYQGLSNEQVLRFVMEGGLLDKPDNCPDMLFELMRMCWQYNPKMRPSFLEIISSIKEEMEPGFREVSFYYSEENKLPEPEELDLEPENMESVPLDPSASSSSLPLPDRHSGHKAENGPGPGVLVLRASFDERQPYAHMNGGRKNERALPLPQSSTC

Question: How did the “inhibition of IGF1-induced IGF1R auto-phosphorylation” value (“inhibition” for short) turn out when `CN1CCN(c2ccc(C(=O)Nc3n[nH]c4ccc(S(=O)(=O)c5ccccc5)cc34)cc2)CC1` [Compound 1, N-(5-Benzenesulfonyl-1H-indazol-3-yl)-4-(4-methyl-piperazin-1-yl)-benzamide] was run?
Answer: inhibition of IGF1-induced IGF1R auto-phosphorylation

Question: How did the “inhibition” value turn out when `CN1CCN(c2ccc(C(=O)Nc3n[nH]c4ccc(S(=O)(=O)c5ccccc5)cc34)c(NC(=O)c3ccc[nH]3)c2)CC1` [Compound 33, 1H-pyrrole-2-carboxylic acid [2-(5-benzenesulfonyl-1H-indazol-3-ylcarbamoyl)-5-(4-methyl-piperazin-1-yl)-phenyl]amide] was run?
Answer: inhibition of IGF1-induced IGF1R auto-phosphorylation

Question: With `CN1CCN(c2ccc(C(=O)Nc3n[nH]c4ccc(S(=O)(=O)c5ccccc5)cc34)c(NC(=O)[C@@H]3CCCO3)c2)CC1` [Compound 36, (S)-Tetrahydro-furan-2-carboxylic acid [2-(5-benzenesulfonyl-1H-indazol-3-ylcarbamoyl)-5-(4-methyl-piperazin-1-yl)-phenyl]-amide] as the compound, how does the “inhibition” value read?
Answer: inhibition of IGF1-induced IGF1R auto-phosphorylation
